Like-named read-outs stand apart in the source and are kept apart here. Where no end group is shown, it is not given here.

One series has as its system mice. Conditions: topical, WO 2018/048779; cited from earlier work.
Series [1] concerns healthy volunteers. The note with it: difference from placebo, cited from earlier work.
Series [2] concerns healthy volunteers. The note with it: difference from placebo, cited from earlier work. The source holds these as a separate data set.
For series [3] the following is noted: oral medication; Quiding et al. PAIN 154 (2013); cited from earlier work.
Series [4] has as its system healthy volunteers. Description: VAS-Pain (post-laser pain). The series is classed as in vivo, human. Conditions: for Mean (LEP induced VAS pain): n=24; for VAS Mean Difference: topical, difference from placebo, day 4 (AUC). On the procedure: (§1) At Day 1, Areas 1-4 were treated with 1 ml of the Compound 1 Gel (0.05 ml/cm^2) or placebo and were tested for changes in LEP-amplitudes and Visual Analog Scale Rating of Pain (VAS-P). Assessments were performed before and after (investigational medicinal product) IMP application. At Days 2 and 3, LEPs and VAS-P assessments will also be performed before and 1 h after the second and third application of IMP at the same time as on Day 1 (±1 h). At test Day 4, LEPs and VAS-P were evaluated for areas 1-4 at 1, 6 and 9 h after the 4th IMP application.
At the 2 h time point on Day 4, skin areas 5 and 6 will be UVR irradiated with 2 MED. LEPs, VAS-P, erythema (by skin reflection spectrometry (SRS)) and pin prick hyperalgesia (by weighted needle threshold (WNT)) were evaluated before and 1, 2, 3, 6 and 9 h after UVR. At the same time points, anti-inflammatory effects on the areas of UVR will be evaluated by SRS with the a-value being the measure of “redness”. Subjects returned on Day 5 for the 5th IMP application. One hour after IMP application and 24±1 h after UVR, LEPs and VAS-Pain were evaluated on areas 1-6. In addition, erythema (SRS) and pin prick hyperalgesia (WNT) were evaluated on areas 5 and 6. Subjects returned for a follow-up visit at Day 9 (±1).
VAS-Pain is a subjective assessment of pain, which was used for all skin conditions. Electronic nociceptive scoring with electronic 100-mm visual analog scales (VASs) for post-laser pain (VAS-P) was assessed on a tablet PC, which allowed the subject to discriminate pain severity between no pain and strong pain using a 0 to 100 mm scale. The measurements were taken after each laser session—summarizing the overall impression of the “painfulness” of the whole session.
The statistical analysis was based on the evaluation of treatment related differences at the individual time points and comparison of the AUC (Area Under the Curve) parameter derived from the efficacy endpoints.
The timepoints to be included in the calculation of the AUC depended on the objective. • 1. For evaluating objective a) and b) (treatment areas 1-4), two AUC calculations were used • a. All evaluations at 1 h after IMP application at Days 1-5, the assessment at predose on Day 1 served as reference. • b. Evaluations at all timepoints at Day 4 and before IMP application on Day 5 • 2. For evaluating objective c) and d) all timepoints at Day 4 and the assessments before IMP application on Day 5 will be included in the calculation of the AUC related to treatment areas (treatment area 5 and 6).
Those parameters were analysed using a linear mixed regression model. The regression included the classification variable treatment (A1, A2, B1 and B2 resp. A3 and B3) and the corresponding baseline value (pre dose measurement on normal skin) as fixed effects and the intercept over the subjects as a random effect.
All treatment differences with 95% confidence intervals were estimated from this model. The null-hypotheses that these differences are equal to zero (no difference between active treatments and placebo) were tested at the 5% level against the two-sided alternatives.
Data used from study described in Example 2 for calculating Cohen's D were taken at the 1, 6 and 9 hour time points on day 4 of the study and are shown in the table below. The standard deviation (SD) was derived from the standard error (SE) taking into account the sample size of n=24.

In series [5] the test system is healthy volunteers. Conditions: for Cohen's d, VAS (0-5 min): Capsaicin, 95 mg oral vs placebo.
For series [6], the system named is healthy volunteers. Description: Laser algesimetry, laser evoked potentials (LEP), N2-P2 Peak-to-Peak amplitude. Type of series: in vivo, human. Conditions: for PtP Mean Difference: topical, difference from placebo, day 4 (AUC). On the procedure: Healthy volunteers were screened for eligibility from Day −28 to Day −2 before first treatment. During screening also, a training session (without study medication) was performed in order to introduce subjects to the testing and rating procedures. Prior to testing the laser evoked potentials (LEPs) from healthy skin, the individual Laser Pain Threshold (LPT) was be determined for each volunteer.
as §1
At the 2 h time point on Day 4, skin areas 5 and 6 will be UVR irradiated with 2 MED. LEPs, VAS-P, erythema (by skin reflection spectrometry (SRS)) and pin prick hyperalgesia (by weighted needle threshold (WNT)) were evaluated before and 1, 2, 3, 6 and 9 h after UVR. At the same time points, anti-inflammatory effects on the areas of UVR will be evaluated by SRS with the a-value being the measure of “redness”. […] One hour after IMP application and 24±1 h after UVR, LEPs and VAS-Pain were evaluated on areas 1-6. In addition, erythema (SRS) and pin prick hyperalgesia (WNT) were evaluated on areas 5 and 6. […]
Laser algesimetry is an experimental induction of pain by means of a contact-free thermo-nociceptive laser beam with a constant short duration (ms) and individually adjusted intensity above the pain threshold (determined at Screening). Objective and quantitative measurement of nociception is accomplished by the analysis of the contingent vertex EEG event-related potentials (somatosensory/radiant heat ERPs).
The study effects of the study medications (the Compound 1 Gel and placebo) were measured as a reduction in the PtP amplitude. […]

Series [7] relates to healthy volunteers. Briefly: tolerability in the clinical study. Conditions: normal skin, skin with a compromised barrier function and inflamed skin.
The subject of series [8] is patients undergoing surgical removal of a mandibular third molar. Briefly: Molar extraction study (legacy), oral AZD1386, pain intensity VAS. Type of series: in vivo, human. The note with it: 95 mg oral vs placebo. On the procedure:
This was a single dose, randomised, double-blind, double dummy, placebo- and Naproxen controlled study to investigate the analgesic efficacy of AZD1386 95 mg in patients undergoing surgical removal of a partially or completely impacted mandibular third molar, where bone removal was judged to be needed. Naproxen 500 mg was included as a treatment arm, for assay sensitivity only.
Patients requesting pain relief, due to pain from the dental surgical area, within 6 hours after the end of the administration of the local anaesthetic (last anaesthetic dose) were randomised to 1 of 3 treatment arms: 40 patients received AZD1386 95 mg oral solution and Naproxen placebo capsule, 40 patients received AZD1386 placebo oral solution and Naproxen placebo capsule and 23 patients received AZD1386 placebo oral solution and Naproxen 500 mg (for assay sensitivity only). A visual Analogue Scale (VAS) was used for the assessment of pain intensity and pain on jaw movement. The VAS consists of an ungraduated 100 mm horizontal line with the left end (0 mm) marked “No pain” and the right end (100 mm) marked “Worst pain imaginable”. The patient indicated his/her present pain intensity and pain on jaw movement by drawing a vertical line across the scale on paper CRF pages. The pain intensity was rated by the patients immediately prior to administration of the investigational product, and subsequent assessments were performed at 15 min, 30 min, 45 min, 1 h, 1 h15 min, 1 h30 min, 1 h45 min, 2 h, 2 h30 min, 3 h, 4 h, 5 h, 6 h, 7 h, and 8 h after the start of administration of the investigational product.

[9] abbreviates: Lacosamide 60 mg (oral), Schaffler et al. (2017).
Setting [10] is: Pregabalin 150 mg (oral), Schaffler et al. (2017).
Where [11] appears, read: Tramadol 100 mg (oral), Schaffler et al. (2013).
The mark [12] stands for this setting: Etoricoxib 90 mg (oral), Schaffler et al. (2013).
The mark [13] stands for this setting: Duloxetin 60 mg (oral), Schaffler et al. (2017).

With QRFSR [opiorphin], the capsaicin-induced wound licking entry in the series on mice is “reduced”.

On to `CC(C)(C)c1ccc(/C=C/C(=O)Nc2ccc3c(c2)OCCO3)cc1` [AMG9810], for which the capsaicin-induced wound licking result in the series on mice is recorded as “reduced”.

For `COC[C@@H](NC(C)=O)C(=O)NCc1ccccc1` [Lacosamide], the “PtP Mean Difference” value in the series on healthy volunteers [1] (setting [9]) is recorded as 0.5 μV. The “VAS Mean Difference” value with healthy volunteers [2] (setting [9]) was 2.1 mm.

Consider `C[C@H](NC(=O)Cn1cnc2ccc(F)c(F)c21)c1ccc(C(C)(C)C)cc1` [Compound 1], for which the liver enzymes entry in series [3] is given as “elevations in liver enzymes”. Besides, the “Mean (LEP induced VAS pain)” value in the series on healthy volunteers [4] (Day 4, 1 h, Normal skin) amounted to 32.63 mm; in the series with healthy volunteers [4] (Day 4, 1 h, Optimized skin), 22.56 mm; in the series with healthy volunteers [4] (Day 4, 6 h, Normal skin), 32.41 mm; in the series with healthy volunteers [4] (Day 4, 6 h, Optimized skin), 28.01 mm; in the series on healthy volunteers [4] (Day 4, 9 h, Normal skin), 35.64 mm; in the series with healthy volunteers [4] (Day 4, 9 h, Optimized skin), 32.27 mm. Moreover, the “VAS Mean Difference” value in the series with healthy volunteers [4] (normal skin) stood at 13.2 mm; with healthy volunteers [4] (optimised skin), 18.7 mm. The “Cohen's d, VAS (0-5 min)” value in the series on healthy volunteers [5] (01:08 h after IMP) came out at 0.04; in the series with healthy volunteers [5] (01:38 h after IMP, listed as AZD1386), 0.3; in the series with healthy volunteers [5] (02:38 h after IMP), 0.06; in the series on healthy volunteers [5] (03:38 h after IMP) it was 0.22; in the series on healthy volunteers [5] (05:08 h after IMP) it was 0.15. Moreover, in the series with healthy volunteers [5] (oral, consistent across the two legacy studies), the “time of significant analgesic effects after oral administration” value was 1 to 1.5 h. The “PtP Mean Difference” value in the series with healthy volunteers [6] (normal skin) is on record as 6.8 μV; in the series with healthy volunteers [6] (optimised skin), 9.1 μV. The “analgesic effects of topical treatment” value in the series on healthy volunteers [6] (normal, optimized and UVR inflamed skin) was “highly superior to placebo”. Further, the tolerability entry with healthy volunteers [7] is “well tolerated”. For the same compound, the “Cohen's d, VAS (vs basel.)” value in series [8] (01:00 h after IMP) is 0.66; in [8] (01:30 h after IMP) it was 0.12; in series [8] (02:30 h after IMP), “in favour”; in series [8] (03:00 h after IMP), “in favour”; in series [8] (04:00 h after IMP), “in favour”; in [8] (05:00 h after IMP) it was “in favour”. Moreover, the “Cohen's d, VAS (vs basel.)” value in series [8] (06:00 h after IMP) is listed as “in favour”.

Regarding `CC(C)C[C@H](CN)CC(=O)O` [Pregabalin], the “PtP Mean Difference” value with healthy volunteers [1] (setting [10]) was 2.7 μV. In addition, the “VAS Mean Difference” value in the series on healthy volunteers [2] (setting [10]) is on record as 9.1 mm.

Consider `COc1cccc(C2(O)CCCCC2CN(C)C)c1` (centres unmarked) [Tramadol], for which the “PtP Mean Difference” value in the series with healthy volunteers [1] (setting [11]) is 4.5 μV. For the same compound, the “VAS Mean Difference” value with healthy volunteers [2] (setting [11]) is 7.1 mm.

With `Cc1ccc(-c2ncc(Cl)cc2-c2ccc(S(C)(=O)=O)cc2)cn1` [Etoricoxib], the “PtP Mean Difference” value with healthy volunteers [1] (setting [12]) is 0.2 μV. Further, in the series on healthy volunteers [2] (setting [12]), the “VAS Mean Difference” value is 1.2 mm.

For `CNCC[C@H](Oc1cccc2ccccc12)c1cccs1` [Duloxetin], the “PtP Mean Difference” value in the series on healthy volunteers [1] (setting [13]) was 1.7 μV. In addition, the “VAS Mean Difference” value in the series with healthy volunteers [2] (setting [13]) is recorded as 2.2 mm.
